Assay results taken from ChEMBL document CHEMBL3792311, “In vitro and in vivo activity of ML302F: a thioenolate inhibitor of VIM-subfamily metallo -lactamases” (Medchemcomm, 2016).
Active and inactive are the calls of the source. No cut-off for these calls is given here.

What was measured:
[1] = Inhibition of beta-lactamase VIM-2 (unknown origin)
Escherichia coli [2] = experiment: Potentiation of meropenem-induced antibacterial activity against VIM4 carbapenemase producing multidrug-resistant Escherichia coli 98 clinical isolate at 1:8 meropenem:compound ratio by checkerboard method; type: functional
Pseudomonas aeruginosa [3] = experiment: Antibacterial activity against VIM2 carbapenemase producing multidrug-resistant Pseudomonas aeruginosa 27 clinical isolate up to 512 mg/L by broth microtiter dilution method; type: functional, organism-based
Pseudomonas aeruginosa [4] = experiment: Antibacterial activity against VIM2 carbapenemase producing multidrug-resistant Pseudomonas aeruginosa GR62 clinical isolate up to 512 mg/L by broth microtiter dilution method; type: functional, organism-based
Klebsiella oxytoca [5] = experiment: Antibacterial activity against VIM4 carbapenemase producing multidrug-resistant Klebsiella oxytoca 95 clinical isolate up to 512 mg/L by broth microtiter dilution method; type: functional, organism-based
Pseudomonas aeruginosa [6] = experiment: Potentiation of meropenem-induced antibacterial activity against VIM2 carbapenemase producing multidrug-resistant Pseudomonas aeruginosa GR57 clinical isolate infected in Galleria mellonella larvae assessed as survival rate at 4.8 mg/kg measured at 96 hrs; type: functional; conditions: GR57, 96 h
Pseudomonas aeruginosa [7] = experiment: Potentiation of meropenem-induced antibacterial activity against VIM2 carbapenemase producing multidrug-resistant Pseudomonas aeruginosa 50 clinical isolate assessed as MIC of meropenem at 1:8 meropenem:compound ratio by broth microtiter dilution method; type: functional
Pseudomonas aeruginosa [8] = experiment: Antibacterial activity against VIM2 carbapenemase producing multidrug-resistant Pseudomonas aeruginosa 30 clinical isolate up to 512 mg/L by broth microtiter dilution method; type: functional, organism-based
Klebsiella pneumoniae [9] = experiment: Potentiation of meropenem-induced antibacterial activity against VIM4 carbapenemase producing multidrug-resistant Klebsiella pneumoniae 120 clinical isolate assessed as MIC of meropenem at 1:8 meropenem:compound ratio by broth microtiter dilution method; type: functional
Pseudomonas aeruginosa [10] = experiment: Potentiation of meropenem-induced antibacterial activity against VIM2 carbapenemase producing multidrug-resistant Pseudomonas aeruginosa 30 clinical isolate assessed as MIC of meropenem at 1:8 meropenem:compound ratio by broth microtiter dilution method; type: functional
Klebsiella pneumoniae [11] = experiment: Potentiation of meropenem-induced antibacterial activity against VIM1 carbapenemase producing multidrug-resistant Klebsiella pneumoniae GR54 clinical isolate assessed as MIC of meropenem at 1:8 meropenem:compound ratio by broth microtiter dilution method; type: functional
Pseudomonas aeruginosa [12] = experiment: Antibacterial activity against VIM2 carbapenemase producing multidrug-resistant Pseudomonas aeruginosa 14 clinical isolate up to 512 mg/L by broth microtiter dilution method; type: functional, organism-based
Pseudomonas aeruginosa [13] = experiment: Potentiation of meropenem-induced antibacterial activity against VIM2 carbapenemase producing multidrug-resistant Pseudomonas aeruginosa 13 clinical isolate at 1:8 meropenem:compound ratio by checkerboard method; type: functional
Klebsiella pneumoniae [14] = experiment: Potentiation of meropenem-induced antibacterial activity against VIM4 carbapenemase producing multidrug-resistant Klebsiella pneumoniae 120 clinical isolate infected in Galleria mellonella larvae assessed as survival rate at 4.8 mg/kg measured at 96 hrs; type: functional; conditions: Klebsiella pneumoniae, 120, 96 h
Pseudomonas aeruginosa [15] = experiment: Potentiation of meropenem-induced antibacterial activity against VIM2 carbapenemase producing multidrug-resistant Pseudomonas aeruginosa 15 clinical isolate at 1:8 meropenem:compound ratio by checkerboard method; type: functional
Pseudomonas aeruginosa [16] = experiment: Potentiation of meropenem-induced antibacterial activity against VIM2 carbapenemase producing multidrug-resistant Pseudomonas aeruginosa 47 clinical isolate assessed as MIC of meropenem at 1:8 meropenem:compound ratio by broth microtiter dilution method; type: functional
Klebsiella oxytoca [17] = experiment: Antibacterial activity against VIM4 carbapenemase producing multidrug-resistant Klebsiella oxytoca 126 clinical isolate up to 512 mg/L by broth microtiter dilution method; type: functional, organism-based
Pseudomonas aeruginosa [18] = experiment: Potentiation of meropenem-induced antibacterial activity against VIM2 carbapenemase producing multidrug-resistant Pseudomonas aeruginosa 47 clinical isolate at 1:8 meropenem:compound ratio by checkerboard method; type: functional
Klebsiella pneumoniae [19] = experiment: Antibacterial activity against VIM4 carbapenemase producing multidrug-resistant Klebsiella pneumoniae 120 clinical isolate up to 512 mg/L by broth microtiter dilution method; type: functional, organism-based
Pseudomonas aeruginosa [20] = experiment: Antibacterial activity against VIM2 carbapenemase producing multidrug-resistant Pseudomonas aeruginosa 8 clinical isolate up to 512 mg/L by broth microtiter dilution method; type: functional, organism-based
Pseudomonas aeruginosa [21] = experiment: Potentiation of meropenem-induced antibacterial activity against VIM2 carbapenemase producing multidrug-resistant Pseudomonas aeruginosa 14 clinical isolate assessed as MIC of meropenem at 1:8 meropenem:compound ratio by broth microtiter dilution method; type: functional
Pseudomonas aeruginosa [22] = experiment: Potentiation of meropenem-induced antibacterial activity against VIM2 carbapenemase producing multidrug-resistant Pseudomonas aeruginosa GR58 clinical isolate at 1:8 meropenem:compound ratio by checkerboard method; type: functional
Klebsiella pneumoniae [23] = experiment: Antibacterial activity against VIM4 carbapenemase producing multidrug-resistant Klebsiella pneumoniae 120 clinical isolate infected in Galleria mellonella larvae assessed as survival rate at 4.8 mg/kg measured at 96 hrs; type: functional, organism-based
Klebsiella pneumoniae [24] = experiment: Potentiation of meropenem-induced antibacterial activity against VIM4 carbapenemase producing multidrug-resistant Klebsiella pneumoniae 128 clinical isolate at 1:8 meropenem:compound ratio by checkerboard method; type: functional
Klebsiella pneumoniae [25] = experiment: Antibacterial activity against VIM1 carbapenemase producing multidrug-resistant Klebsiella pneumoniae GR54 clinical isolate up to 512 mg/L by broth microtiter dilution method; type: functional, organism-based
Pseudomonas aeruginosa [26] = experiment: Antibacterial activity against VIM2 carbapenemase producing multidrug-resistant Pseudomonas aeruginosa GR58 clinical isolate up to 512 mg/L by broth microtiter dilution method; type: functional, organism-based
Pseudomonas aeruginosa [27] = experiment: Potentiation of meropenem-induced antibacterial activity against VIM2 carbapenemase producing multidrug-resistant Pseudomonas aeruginosa 27 clinical isolate at 1:8 meropenem:compound ratio by checkerboard method; type: functional
Pseudomonas aeruginosa [28] = experiment: Antibacterial activity against VIM2 carbapenemase producing multidrug-resistant Pseudomonas aeruginosa 12 clinical isolate up to 512 mg/L by broth microtiter dilution method; type: functional, organism-based
Pseudomonas aeruginosa [29] = experiment: Potentiation of meropenem-induced antibacterial activity against VIM2 carbapenemase producing multidrug-resistant Pseudomonas aeruginosa 9 clinical isolate at 1:8 meropenem:compound ratio by checkerboard method; type: functional
Pseudomonas aeruginosa [30] = experiment: Potentiation of meropenem-induced antibacterial activity against VIM2 carbapenemase producing multidrug-resistant Pseudomonas aeruginosa 8 clinical isolate assessed as MIC of meropenem at 1:8 meropenem:compound ratio by broth microtiter dilution method; type: functional
Pseudomonas aeruginosa [31] = experiment: Potentiation of meropenem-induced antibacterial activity against VIM2 carbapenemase producing multidrug-resistant Pseudomonas aeruginosa 12 clinical isolate at 1:8 meropenem:compound ratio by checkerboard method; type: functional
Pseudomonas aeruginosa [32] = experiment: Potentiation of meropenem-induced antibacterial activity against VIM2 carbapenemase producing multidrug-resistant Pseudomonas aeruginosa 11 clinical isolate assessed as MIC of meropenem at 1:8 meropenem:compound ratio by broth microtiter dilution method; type: functional
Escherichia coli [33] = experiment: Potentiation of meropenem-induced antibacterial activity against VIM4 carbapenemase producing multidrug-resistant Escherichia coli 98 clinical isolate assessed as MIC of meropenem at 1:8 meropenem:compound ratio by broth microtiter dilution method; type: functional
Providencia stuartii [34] = experiment: Antibacterial activity against VIM1 carbapenemase producing multidrug-resistant Providencia stuartii 70 clinical isolate up to 512 mg/L by broth microtiter dilution method; type: functional, organism-based
Escherichia coli [35] = experiment: Antibacterial activity against VIM4 carbapenemase producing multidrug-resistant Escherichia coli 98 clinical isolate up to 512 mg/L by broth microtiter dilution method; type: functional, organism-based
Providencia stuartii [36] = experiment: Potentiation of meropenem-induced antibacterial activity against VIM1 carbapenemase producing multidrug-resistant Providencia stuartii 70 clinical isolate assessed as MIC of meropenem at 1:8 meropenem:compound ratio by broth microtiter dilution method; type: functional

In the case of `O=C(O)/C(S)=C/c1c(Cl)ccc(Cl)c1Cl`, the IC50 [1] is reported as 300 nM, the “fractional inhibitory concentration index (FICI)” value (Escherichia coli [2]) is reported as 0.16 and the Activity (Pseudomonas aeruginosa [3]) is reported as “inactive”. For the same compound, the Activity (Pseudomonas aeruginosa [4]) was “inactive”, the Activity (Klebsiella oxytoca [5]) was “inactive” and the survival at 4.8 mg/kg (Pseudomonas aeruginosa [6]) was 81%. The MIC (Pseudomonas aeruginosa [7]) was 8 µg/mL, the Activity (Pseudomonas aeruginosa [8]) was “inactive” and the MIC (Klebsiella pneumoniae [9]) was 2 µg/mL. For the same compound, the MIC (Pseudomonas aeruginosa [10]) was 8 µg/mL, the MIC (Klebsiella pneumoniae [11]) was 4 µg/mL and the Activity (Pseudomonas aeruginosa [12]) was “inactive”. The “fractional inhibitory concentration index (FICI)” value (Pseudomonas aeruginosa [13]) was 0.75, the survival at 4.8 mg/kg (Klebsiella pneumoniae [14]) was 98% and the “fractional inhibitory concentration index (FICI)” value (Pseudomonas aeruginosa [15]) was 0.5. The MIC (Pseudomonas aeruginosa [16]) was 1 µg/mL, the Activity (Klebsiella oxytoca [17]) was “inactive” and the “fractional inhibitory concentration index (FICI)” value (Pseudomonas aeruginosa [18]) was 0.05. For the same compound, the Activity (Klebsiella pneumoniae [19]) was “inactive”, the Activity (Pseudomonas aeruginosa [20]) was “inactive” and the MIC (Pseudomonas aeruginosa [21]) was 2 µg/mL. For the same compound, the “fractional inhibitory concentration index (FICI)” value (Pseudomonas aeruginosa [22]) was 0.38, the Activity (Klebsiella pneumoniae [23]) was “Active” and the “fractional inhibitory concentration index (FICI)” value (Klebsiella pneumoniae [24]) was 0.27. The Activity (Klebsiella pneumoniae [25]) was “inactive”, the Activity (Pseudomonas aeruginosa [26]) was “inactive” and the “fractional inhibitory concentration index (FICI)” value (Pseudomonas aeruginosa [27]) was 0.5. The Activity (Pseudomonas aeruginosa [28]) was “inactive”, the “fractional inhibitory concentration index (FICI)” value (Pseudomonas aeruginosa [29]) was 0.38 and the MIC (Pseudomonas aeruginosa [30]) was 16 µg/mL. For the same compound, the “fractional inhibitory concentration index (FICI)” value (Pseudomonas aeruginosa [31]) was 0.75, the MIC (Pseudomonas aeruginosa [32]) was 2 µg/mL and the MIC (Escherichia coli [33]) was 2 µg/mL. For the same compound, the Activity (Providencia stuartii [34]) was “inactive”, the Activity (Escherichia coli [35]) was “inactive” and the MIC (Providencia stuartii [36]) was 1 µg/mL.
